# Results published in US11103458B2, “Stimulant abuse-deterrent compositions” (4P-Pharma, priority 2015, dated 2021).
# “And” between values parts separate entries of the source, which are not always exact repeats. Equal entries are not always repeated. “Also recorded” adds a separate entry of the source. Structures can show the parent of a compound that is named as a salt. Where two headings read alike, the source gives them in different places. Marks after values point to notes of the source that are not given here.
# How the values were obtained:
# C57bl/6J male mice = test: Open Field Test (OFT, activity box) with Methylphenidate, Apomorphine and their combination (Example 7); assay type: in vivo; conditions: for Center Time / Distance / Rearing Time / Velocity: Day 1, group average; for effect on Methylphenidate-increased distance travelled and velocity: Methylphenidate 5 mg/kg, dose dependent
# Procedure: Eight groups comprising eight or nine C57bl/6J male mice were assigned for this study. Methylphenidate (MPH) was used as the model inducer. […] Spontaneous activity in Open Field Test (OFT) was performed.
# Each Test Item and vehicle formulation was administrated to 8/9 mice per group. The administration was performed PO or IP according to group allocation in Table 1.
# The open field test (OFT) is a commonly used qualitative and quantitative measure of general locomotor activity and willingness to explore in rodents. Open Field test (OFT) was performed according to Pharmaseed SOP No. 113: “Open Field for Mice Testing”. OFT was performed 15 or 30 min after test item IP or PO administration, respectively.
# Fifteen minutes after test item/vehicle administration, mice were placed at the center of an open field box (43×43×40 cm) approximately at the same time of the day. On each side of the open field box, two frames placed at 2 and 5 cm height with 16 photocell beams per side ensured movement detection. The computer defined grid lines that divided the open field into two compartments: margin and center. Several variables were recorded during a 15 minute session of spontaneous activity including: • Indices of motor exploratory activity: distance travelled, moving time, and velocity • Indices of habituation: distance travelled during the last 5-min period in percent of the first+last 5-min periods. • Indices of anxiety: percentage of distance travelled and time spent in the central zone of the open-field. • Curiosity activity: rearing episodes and time Open Field Test (Activity Box)
# OFT was performed 15 or 30 min after test item IP or PO administration, respectively. The parameters measured were distance and velocity as indicators of general motility, time spent in center as an indicator for anxiety and rearing time as indicator of the animal's curiosity.
# dogs [1] = test: Behavior observation: activity levels and clinical signs in dogs (Example 8); conditions: for video observation: behavior associated to hyperactivity: first 60-100 min
# Procedure: (§1) Six groups comprising six dogs were assigned for this Example. Methylphenidate (MPH) was used as the model inducer. […] Behavioral observation was performed during 6 hours following test items administration and blood samples were taken on 4 dogs per group at 0.25, 0.5, 1, 1.5, 3, 4 and 6 hours post-administration for pharmacokinetic (PK) analysis.
# Animals: Mixed breed dogs (5 Males+7 females/12/3 to 5 years/10.5 to 18.5 kg, from SPM Biocameltec) were used in the studies outlined in this example.
# Administration of the test items: Each Test Item was administrated to 6 dogs per group. The administration was performed PO or IV according to group allocation in Table 3. The study was performed in 3 cycles and a period of wash-out of at least 10 days was respected between each cycle.
# Behavior observation: The animals were observed every 10 minutes during the first 2 hours post administration, and every 20 minutes thereafter, for 6 hours. Observations included respiratory, circulatory, autonomic and central nervous systems, somatomotor activity and behavior pattern (e.g. sedation, respiration rate, changes in mentation, gait, and the like).
# Male C57BI mice = test: Apomorphine mediated inhibition of RITALIN®-induced hyperactivity in activity box (pilot study, Example 5); assay type: in vivo; conditions: for locomotion after apomorphine alone: given at 5 mg/kg, 5 mg/kg
# Procedure: Male mice C57BI weighing about 22 g were used in the study.
# Male C57BI mice weighing about 22 g were used in the study.
# Mice were administered saline solutions of the two actives as follows:
# Methylphenidate was dissolved in saline 0.9% to a concentration of 0.5 mg/ml,
# Both compounds' solutions were administered at dose volume of […].
# Animals' motor locomotion in four groups (1-4 M) was assessed in the activity box. Animals were placed in the activity box and several parameters were observed including movement time, distance, V-plan entries, margin vs. center time, and other parameters. Groups 1-3 M were monitored for 30 minutes each, during which all parameters were assessed at 2 minutes intervals. In the 4 M group, animals were monitored for 60 minutes with 2 minutes assessment intervals. The assessment in the activity box was done in total darkness (red light was used for illumination). The main parameters that were calculated in this study were the move time, total distance and vertical plan entry. The observation for groups 1-3 M were made during 30 minutes with 2 minutes calculation intervals of each parameter. In the fourth group (4 M) the observations were extended for 60 minutes with 2 minutes calculation intervals
# [2] = PK analysis of Methylphenidate and Apomorphine in dogs' plasma (Example 8); conditions: for change in PK profile on co-administration: t-test: no statistical significance
# Procedure: as §1
# Blood Collection and PK analysis: For blood collection, a 5 ml syringe was used and blood sampling was directly collected at the jugular vein. Blood samples were collected in K3-EDTA tubes at the following time points: 0.25, 0.5, 1, 1.5, 3, 4 and 6 hours post-administration (7 samples). At each time point, 6 ml of blood was collected for 4 drug-treated dogs. Plasma samples were analyzed using LC-MS/MS and PK analysis was performed using the PK Solutions Version 2.0 program.
# mice = test: Apomorphine blocking of RITALIN®-induced hyperactivity at human equivalent dosing (second study, Example 6); assay type: in vivo; conditions: mice (n=4)
# dogs [3] = conditions: general statement, not this study, cited from earlier work
# dogs [4] = test: Apomorphine-induced emesis in dogs (Example 8); assay type: in vivo; conditions: for apomorphine-induced emesis: apomorphine IV 0.15 mg/kg, alone (group 3) or with MPH 1.7 mg/kg (group 5)
# From the text: Methylphenidate (MPH) was used as the model inducer.
smiles,measurement,setting,value
"COC(=O)C(c1ccccc1)C1CCCCN1 (centres unmarked) [Methylphenidate, methylphenidate HCl]",Center Time,C57bl/6J male mice; MPH 5 mg/kg IP (2M),89.8 s
same,Distance,C57bl/6J male mice; MPH 5 mg/kg IP (2M),3147.1 cm
same,Rearing Time,C57bl/6J male mice; MPH 5 mg/kg IP (2M),114.3 s
same,Velocity,C57bl/6J male mice; MPH 5 mg/kg IP (2M),4.3 cm/s
same,Center Time,C57bl/6J male mice; MPH 5 mg/kg PO (3M),88.2 s
same,Rearing Time,C57bl/6J male mice; MPH 5 mg/kg PO (3M),104.5 s
same,Velocity,C57bl/6J male mice; MPH 5 mg/kg PO (3M),3.4 cm/s
same,Distance,"C57bl/6J male mice; MPH 5 mg/kg PO (3M), p < 0.05 vs. 2M",2198.4* cm
same,distance travelled and velocity compared to Vehicle-treated controls (1M),"C57bl/6J male mice; Methylphenidate 5 mg/kg IP (2M), Day 1, OFT, HCl",significantly increased; also recorded: caused elevation in locomotor activity
same,activity levels,"dogs [1]; MPH IV 1.7 mg/kg (group 1), dogs, notably during the first 60-100 min, HCl, 1.7 mg/kg",caused increased activity levels; also recorded: induced increased activity levels
same,activity levels,"dogs [1]; MPH IV 1.7 mg/kg (group 1), dogs, notably during the first 60-100 min, listed as MPH, HCl, 1.7 mg/kg",significantly increased dog activity levels
same,time until which clinical signs were observed post administration,"dogs [1]; MPH IV 1.7 mg/kg (group 1), at least the 30 first minutes, up to 110 minutes in one dog",50 to 70 min
same,activity levels,"dogs [1]; Methylphenidate PO 0.3 mg/kg (group 2), dogs, score corresponding to normal dogs",did not induce significant modification of activity levels
same,video observation: behavior associated to hyperactivity,dogs [1]; group 1 (MPH IV 1.7 mg/kg),"constant barking, jumping, walking/circling and a very dynamic state"
same,motor activity (move time and distance),"Male C57BI mice; RITALIN® 5 mg/kg, mice, activity box",induced hyperactivity
same,motor activity (move time and distance covered),"Male C57BI mice; RITALIN® 8 mg/kg, mice, activity box, HCl, 8 mg/kg",induced hyperactivity
same,change of move time and distance over time,"Male C57BI mice; RITALIN® induced group, 30 minutes observation",no significant change over time
same,change in PK profile on co-administration,"[2]; Methylphenidate co-administered with Apomorphine, dogs",somewhat higher values
same,effect of co-administration of Apomorphine on bioavailability or any other PK parameters,"[2]; Methylphenidate, dogs",not affected
same,bioavailability,"[2]; Methylphenidate, dogs, PO 0.3 mg/kg vs IV 1.7 mg/kg",comparable to values published previously in the literature
same,animals' activity post RITALIN® administration,mice; RITALIN® 8.25 mg/Kg,drastic increase in the animals' activity
"CN1CCc2cccc3c2[C@H]1Cc1ccc(O)c(O)c1-3 [Apomorphine, apomorphine]",rearing time compared to Methylphenidate IP treated group (2M),"C57bl/6J male mice; Apomorphine 0.9 mg/kg IP in combination with Methylphenidate (7M), Day 1",significantly reduced rearing time
same,antagonism of Methylphenidate-caused elevation in locomotor activity,C57bl/6J male mice; Apomorphine 0.05-0.9 mg/kg IP with Methylphenidate 5 mg/kg,antagonized this effect in a dose-dependent manner
same,effect on Methylphenidate-increased distance travelled and velocity,"C57bl/6J male mice; combination with Apomorphine 0.9 mg/kg IP (7M), Day 1",significantly reduced
same,effect on Methylphenidate-increased distance travelled and velocity,"C57bl/6J male mice; combination with Apomorphine 0.3 mk/kg IP (6M), Day 1",significantly reduced
same,effect on MPH-induced clinical signs,"dogs [1]; apomorphine administered concomitantly with MPH (group 5), IV",abolished these MPH-induced clinical signs
same,effect on MPH-induced increase in activity,"dogs [1]; combination with Apomorphine 0.15 mg/kg IV (group 5), MPH 1.7 mg/kg IV, dogs",diminished the observed increases in activity; also recorded: significantly reduced the observed increase in activity; also recorded: significantly reduced these effects
same,video observation: behavior associated to hyperactivity,dogs [1]; group 5 (apomorphine 0.15 mg/kg + MPH 1.7 mg/kg IV),only with circling episodes
same,locomotion after apomorphine alone,"Male C57BI mice; mice, activity box","caused a sudden ataxia in animals, with nearly still locomotion"
same,locomotion after apomorphine alone,"Male C57BI mice; mice, activity box, listed as apomorphine",induces hypoactivity and nearly ataxic behavior
same,effect on RITALIN®-induced hyperactivity,"Male C57BI mice; apomorphine injected 5 minutes after RITALIN®, apomorphine 5 mg/kg, RITALIN® 8 mg/kg",totally abolished the effect of RITALIN®; also recorded: total dominance of the effect induced by apomorphine
same,entering the vertical plan,"Male C57BI mice; apomorphine, mice, activity box",abolished
same,plasma levels,"[2]; Apomorphine IV 0.15 mg/kg and PO 0.027 mg/kg, dogs' plasma, especially following oral administration",low levels
same,change in PK profile on co-administration,"[2]; Apomorphine co-administered with Methylphenidate, dogs",somewhat lower values
same,dose to induce vomiting in dogs,dogs [3]; IV,greater than 0.02 mg/kg
same,dose to induce vomiting in dogs,dogs [3]; PO,greater than 4 mg/kg
same,dose to induce vomiting in dogs,dogs [3]; SC,greater than 0.3 mg/kg
same,animals movement / RITALIN®-induced hyperactivity after apomorphine injection,mice; apomorphine 1.23 mg/Kg with RITALIN® 8.25 mg/Kg,dramatically decreased the animals movement
same,time to emesis post administration,"dogs [4]; apomorphine IV 0.15 mg/kg (group 3 and group 5), dogs",1 to 2 min
same,apomorphine-induced emesis,dogs [4]; dogs,inducing emesis
same,apomorphine-induced emesis,"dogs [4]; dogs, listed as apomorphine",observed in all treated dogs
same,induction of emesis,"dogs [4]; apomorphine PO 0.027 mg/kg (group 4), dogs",did not induce emesis
same,"Recorded time for observed emesis following apomorphine administration, individual dogs","dogs [4]; group #3 Apo IV 0.15 mg/kg, Dog 1 to Dog 6, listed as Apo, 0.15 mg/kg",1.0 minutes and 1.5 minutes and 1.1 minutes (2×) and 0.8 minutes and 0.9 minutes
same,"Recorded time for observed emesis following apomorphine administration, Mean","dogs [4]; group #3 Apo IV 0.15 mg/kg, mean of 6 dogs",1.1 min
